Measured values as given in publication PMC4890880 (ACS infectious diseases, 2016).
Read-outs that look alike come from different tables or passages of the source.

Columns and labels:
HepG2-A16-CD81EGFP cells [1] = assay: cells; conditions: Homo sapiens, HepG2, read-out: % inhibition
[2] = tested on: Plasmodium berghei (Pb-Luc) exoerythrocytic-stage parasites; assay: microbe, parasite or virus in culture
HepG2-A16-CD81EGFP cells [3] = conditions: human, 50 uM
[4] = read-out: Inhibition% @ 50 uM rep1
[5] = read-out: Inhibition% @ 50 uM rep2

| Structure (SMILES) | inhibition at 50 µM (HepG2-A16-CD81EGFP cells [1]) [%] | inhibition at 50 µM [2, 4] [%] | inhibition at 50 µM [2, 5] [%] | HepG2 Tox% @ 50 uM rep1 (HepG2-A16-CD81EGFP cells [3]) [%] | HepG2 Tox% @ 50 uM rep2 (HepG2-A16-CD81EGFP cells [3]) [%] |
| --- | --- | --- | --- | --- | --- |
| O=C(Nc1ccc(C23CC4CC(CC(c5ccccc5)(C4)C2)C3)cc1)c1cccs1 [MMV007574] | 83.6 | 103 | 103 |  |  |
| OC1=C2C(=Nc3ccccc3SC2c2ccc(Br)cc2)c2ccccc21 (centres unmarked) [MMV007127] | 64.3 | 103 | 103 |  |  |
| COc1ccc2sc(N(Cc3cccnc3)C(=O)c3ccc(C#N)cc3)nc2c1 [MMV001239] | 63.2 | 73 | 85 |  |  |
| O=C(Nc1cccc(C2=NCCN2)c1)Nc1cccc(C2=NCCN2)c1 [MMV665810] | 48.2 | 61 | 83 |  |  |
| CCOc1ccc2nc(C)cc(Nc3ccc(Br)cc3)c2c1 [MMV006522] | 98.8 | 102 | 104 |  |  |
| CCc1ccc(CNCC(O)c2ccccc2)cc1 (centres unmarked) [MMV665812] | 94.8 | 98 | 99 |  |  |
| O=c1cc(NC2CCN(CCCc3ccccc3)CC2)c2cc(Cl)ccc2o1 [MMV665786] | 80.6 | 100 | 103 |  |  |
| Cc1cccc(N2C(=O)C3C(C2=O)C2(c4ccccc4)C(=O)C3(c3ccccc3)C(c3ccc4c(c3)OCO4)=C2c2ccc3c(c2)OCO3)c1 (centres unmarked) [MMV007228] | -4.28 | 57 | 57 |  |  |
| O=C1c2ccccc2C2=Nc3ccccc3SC(c3cccc(F)c3)C12 (centres unmarked) [MMV006389] | 96.2 | 102 | 103 |  |  |
| Cc1cc(N2CCCC2)nc(Nc2ccc(NC(=O)CCc3ccccc3)cc2)n1 [MMV396669] | 96.9 | 103 | 103 |  |  |
| COc1cc(C(=O)Nc2ccc(-c3nc4ccccc4[nH]3)cc2)cc(OC)c1OC [MMV665898] | 69.9 | 99 | 101 |  |  |
| O=C(NC1CCCCC1)C(c1cccs1)N(CCc1ccccc1)C(=O)c1ccco1 (centres unmarked) [MMV666106] | 76.6 | 102 | 103 |  |  |
| Cc1ccccc1OCCSc1nc2ccc(NC(=O)c3ccccc3)cc2s1 [MMV007577] | 67.4 | 103 | 103 |  |  |
| OC1CCCCC1C1(NC(=S)Nc2ccccc2)CCCCC1 (centres unmarked) [MMV665980] | 82.2 | 104 | 104 |  |  |
| CCCCOC(=O)c1ccc(Nc2cc(C)nc3ccc(OC)cc23)cc1 [MMV665797] | 95.1 | 100 | 101 |  |  |
| Nc1nc(Nc2cccc(F)c2)nc2ccccc12 [MMV080034] | 81.8 | 102 | 103 |  |  |
| COC(=O)c1ccc(Cl)c2c1C1C=CCC1C(c1cccc3ccccc13)N2 (centres unmarked) [MMV667489] | 61.4 | 97 | 99 |  |  |
| Clc1ccc2c(N3CCCC3)ccnc2c1 [MMV007363] | 39.1 | 91 | 94 |  |  |
| COc1ccc2nc(N)nc(C)c2c1 [MMV665897] |  | 100 | 101 | 97 |  |
| COc1ccc(Nc2cc(C)nc(NCc3ccccc3)n2)cc1 [MMV006825] |  | 100 | 100 | 97 |  |
| O=C(CCc1ccccc1)c1ccccc1OCC(O)CN1CCCCC1 (centres unmarked) [MMV009015] |  | 99 | 100 | 97 |  |
| CCC(O)c1ccc(Br)cc1NC(=O)c1cccc(Cl)c1 (centres unmarked) [MMV020654] |  | 104 | 106 | 101 | 101 |
| OC(CNCC1CCCO1)Cn1c2ccc(Cl)cc2c2cc(Cl)ccc21 (centres unmarked) [MMV396736] |  | 101 | 101 | 98 | 99 |
